Results published in patent publication US20230293699A1, “USE OF A BORON CLUSTER AS TRANSMEMBRANE CARRIER” (CONSTRUCTOR UNIVERSITY BREMEN GGMBH, priority 2020, published 2023).

What was measured:
[1] = Transport of a bioactive molecule through a membrane by fused, multinuclear and iodinated clusters
Excerpt: Also fused boron clusters and multinuclear boron clusters were successfully used as transporters for a bioactive molecule through a membrane.

[2] = tested on: Escherichia coli Top10 strain; test: E. coli Top10 viability with kanamycin A and B1; assay type: cell-based
Description: Bar graphs (left) and time course (right) of E. coli Top10 viability in the presence of different concentrations of kanamycin monosulfate (0, 2500, 3000 or 3500 nM) and B1 (0, 500, 750 or 1000 μM) in LB broth at 37° C.; error bars (shown on the right) refer to the standard deviation (n=3; V (%): E. coli Top10 viability, [KA] […]
For kanamycin A, effective passage through the cell membrane into the cytosol is essential to reach its intracellular targets. […] In the absence of the cluster, E. coli retained viability (60%), which disappeared almost completely (<5%) in the presence of the antibiotics carrier (FIG. 5). The enhanced antibiotic activity is attributed to the boron cluster's carrier potential as all other factors were left the same.

[3] = HPTS/DPX vesicle transport assay; assay type: biochemical; conditions: for transport of positive, zwitterionic and neutral cargo into vesicles: cargo: singly charged, neutral biomolecules, vitamins, antibiotics, neuromuscular blocking agents, proteins; for transport of heptaarginine across the lipid membrane of the vesicles: cargo heptaarginine (H-Trp-Arg7-OH), HPTS fluorescence increase
Excerpt: A: Heptaarginine, B: Heptalysine, C: Protamine, D: Acethylcholine, E: Pancuronium, F: Vecuronium, G: Vitamin B1, H: Ranitidin, I: Tryptophan, J: Ampicilin, K: Phenylalanine, L: Phalloidin, M: Glutamic acid, and N: Bovine albumin. +: positively charged cargos, +/−: zwitterionic cargos, ©: neutral cargo, and −: negatively charged cargos;
A hydrophilic heptaarginine peptide (H-Trp-Arg7-OH) which is unable to spontaneously translocate across neutral phosphocholine lipid vesicles in the absence of counterion activators was used as prototype for cationic cell-penetrating molecular scaffolds (peptides and polymers). The capability of boron clusters to activate the transport of the heptaarginine peptide (H-Trp-Arg7-OH) was investigated first in large unilamellar vesicles (LUVs). The HPTS/DPX assay, that uses 8-hydroxypyrene-1,3,6-trisulfonate and p-xylene-bis-pyridinium, was implemented to monitor peptide-transport activation by the clusters. This assay not only reports on the potential of a synthetic carrier to transport the positively charged peptide into a vesicle, but also to shuttle the cationic quencher DPX to the outside.
Transport can accordingly be monitored, and the activator efficacy quantified, by a time-resolved fluorescence increase at different concentrations of the carrier.
HTPS emission was monitored during the sequential addition of the globular cluster carrier and peptide cargo; a strong detergent (Triton® X-100) was added at the end to affect vesicle lysis and complete dye release that allowed a normalization of the fluorescence intensity data.
This was validated in vesicle transport experiments, which included targets which have not been previously accessible to other non-covalent synthetic carriers or counterion activators. The targets included singly charged, zwitterionic, and neutral biomolecules (such as acetylcholine and amino acids), vitamins, antibiotics, neuromuscular blocking agents and proteins.

[4] = biological target: T1, Cereblon E3 Ligase (Homo sapiens, UniProt Q96SW2); test: NanoBRET TE Intracellular E3 Ligase Assay (CRBN target engagement); assay type: cell-based; conditions: dBET1 in presence vs absence of B1 (0, 25, 50 μM)
T1 construct: expressed in transfected cells
T1 sequence (Q96SW2 whole entry): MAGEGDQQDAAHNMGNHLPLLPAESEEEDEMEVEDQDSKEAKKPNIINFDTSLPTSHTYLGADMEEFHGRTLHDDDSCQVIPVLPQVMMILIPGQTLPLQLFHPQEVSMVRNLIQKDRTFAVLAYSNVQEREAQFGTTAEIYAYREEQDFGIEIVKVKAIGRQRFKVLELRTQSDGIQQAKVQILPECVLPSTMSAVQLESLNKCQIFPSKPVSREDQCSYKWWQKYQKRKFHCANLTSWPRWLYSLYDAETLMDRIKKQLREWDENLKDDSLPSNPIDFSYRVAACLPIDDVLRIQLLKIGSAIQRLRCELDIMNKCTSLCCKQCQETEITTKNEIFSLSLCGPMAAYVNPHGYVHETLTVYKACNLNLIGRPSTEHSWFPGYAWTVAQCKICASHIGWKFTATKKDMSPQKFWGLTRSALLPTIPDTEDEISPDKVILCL
Description: Crossbars and error bars indicate mean and standard deviation; values obtained in each experimental value are represented with a different shape;
For dBET1, a PROTAC with known low permeability, it was shown that B1 enhances its activity. The internalization of this PROTAC in the absence and presence of the cluster was assessed by its ability to bind to the Cereblon E3 Ligase by using a NanoBRET™ TE Intracellular E3 Ligase Assay. Enhanced uptake of dBET1 was observed (factor 2-3 decrease in IC50 value).

[5] = tested on: mammalian cell; test: Mammalian cell survival; assay type: cell-based; conditions: 500 μM
[6] = tested on: HeLa cells; test: Tm-Arg8 endosomal escape by confocal fluorescence microscopy; assay type: cell-based
Description: Cells were incubated with 1 μM Tm-Arg8 and 0 (left picture) or 10 μM clusters diluted in HKR buffer for 1 hour, washed twice with HKR buffer, and imaged by confocal fluorescence microscopy; Images show TAMRA fluorescence (light gray) and the brightfield in the inset pictures; scale bars: 50 μm;
The potential of boron clusters to trigger the endosomal escape into live cells was first studied for oligocationic peptides as cargo. As a prototype, the octaarginine peptide labelled with carboxytetramethylrhodamine (Tm-Arg8) was selected, which at low concentrations (i.e., 1 μM) enters cells by endocytosis and remains trapped in the intracellular compartments. The cytosolic delivery of Tm-Arg8 was followed by confocal microscopy in the presence and absence of superchaotropic boron clusters (FIG. 4).

8,8′-I2-(1,2-C2B9H10)2-3,3′-Co^− [CS6]
use as transporter / active cluster for a bioactive molecule through a membrane [1]: successfully used as active clusters

NC[C@H]1O[C@H](O[C@H]2[C@H](O)[C@@H](O[C@H]3O[C@H](CO)[C@@H](O)[C@H](N)[C@H]3O)[C@H](N)C[C@@H]2N)[C@H](O)[C@@H](O)[C@@H]1O [kanamycin A]
viability at 3.5 µg/mL ([2]; Escherichia coli, TOP10STRAIN, read-out: E. coli viability): 60%
antibiotic effectiveness in bacteria ([2]; antibiotic transported by boron cluster): increased its effectiveness

(1,2-C2B9HO2-3,3′-Co^− [CS1]
use as transporter / active cluster for a bioactive molecule through a membrane [1]: successfully used as active clusters

(1,7-C2B9H11)2-2,2′-Co^− [CS2]
use as transporter / active cluster for a bioactive molecule through a membrane [1]: successfully used as active clusters

(8-I-1,2-C2B9H10)-(1′2′-C2B9H11)-3,3′-Co^− [CS4]
use as transporter / active cluster for a bioactive molecule through a membrane [1]: successfully used as active clusters

B10Br10^2− [B4]
transport of positive, zwitterionic and neutral cargo into vesicles [3]: same trends were reproduced in transport efficiency

B12Br11—O-n-C3H7^2− [B2]
transport of heptaarginine across the lipid membrane of the vesicles [3]: little influence

B12Br12^2−
transport of negatively charged cargo into vesicles ([3]; cargo glutamate and albumin): with the exception of the negatively charged molecules (glutamate and albumin)
transport of positive, zwitterionic and neutral cargo into vesicles [3]: transported all types of cargo (positive and neutral)
decrease in IC50 value of dBET1 [4]: 2-3 factor
E. coli viability ([2]; kanamycin A 3.5 μg/ml in the presence of B1 500 μM): < 5%
compatibility with mammalian cell survival [5]: compatible with mammalian cell survival

B12H11NBD^− [B3]
Tm-Arg8 peptide endosomal escape (diffuse cytosolic fluorescence) ([6]; 1 μM Tm-Arg8, 10 μM cluster, HKR buffer, 1 hour): excellent peptide endosomal escape
peptide and cluster colocalization ([6]; fluorescent cluster with Tm-Arg8): significant peptide and cluster colocalization
transport of heptaarginine across the lipid membrane of the vesicles [3]: efficient transport

pyrene butyrate [reference compound]
fluorescence response (transport) of zwitterionic or neutral analytes ([3]; analytes acetylcholine, tryptophan, ampicillin, vecuronium and phalloidin, comparison activator): None of the selected, zwitterionic or neutral, analytes (acetylcholine, tryptophan, ampicillin, vecuronium and phalloidin) showed any fluorescence response
